In general, IC50 refers to the concentration needed to halve the response being measured.

Four molecules from ChEMBL document CHEMBL5257071, “Total Synthesis and Biological Evaluation of the Anti-Inflammatory (13R,14S,15R)-13-Hydroxy-14-deoxyoxacyclododecindione” (J Nat Prod, 2023) can be followed below.

In this test the target is Mothers against decapentaplegic homolog 2/homolog 3 (Homo sapiens, UniProt P84022+Q15796). In words: Inhibition of TGF-beta induced Smad2/3 signaling in human HepG2 cells harboring pRL-EF1alpha, (CAGA)9x-MLP-Luc plasmid assessed as luciferase activity incubated for 24 hrs by Promega reporter rene assay. In kind it is cell-based.
Turning to `C/C1=C\CCC(C)(O)C(C)OC(=O)Cc2c(Cl)c(O)cc(O)c2C1=O` (centres undefined), the IC50 was determined as 0.137 µM.

As for `C/C1=C\C[C@@H](O)[C@H](C)[C@@H](C)OC(=O)Cc2c(Cl)c(O)cc(O)c2C1=O`, the IC50 turned out to be 0.236 µM.

`C/C1=C\CCC(C)(C)C(C)OC(=O)Cc2c(Cl)c(O)cc(O)c2C1=O` (centres undefined): the IC50 came out at 0.03 µM.

For `C/C1=C\CC[C@H](C)[C@@H](C)OC(=O)Cc2c(Cl)c(O)cc(O)c2C1=O`, the IC50 stood at 0.09 µM.
